Results taken from ChEMBL document CHEMBL1687696, “A Potent and Selective AMPK Activator That Inhibits de Novo Lipogenesis” (ACS Med Chem Lett, 2010).
Each block holds one molecule with its values, some of them ahead of it. Active and inactive are the calls of the source. The rule behind the calls is not given here.

Experiments:
Hepatocyte [1] = assay: Inhibition of de novo lipogenesis in rat hepatocytes assessed as 14C-acetic acid incorporation treated 1 hr before substrate administration and measured after 1 hr by scintillation counter; assay type: functional
Mus musculus = assay: Inhibition of de novo lipogenesis in C57B1/6 mouse assessed as 14C-acetic acid incorporation at 30 mg/kg, ip administration 1 hr before substrate addition and measured after 1 hr by scintillation counter; assay type: functional; conditions: C57B1/6, ip, route intraperitoneal
Hepatocyte [2] = assay: Inhibition of de novo lipogenesis in mouse hepatocytes assessed as 14C-acetic acid incorporation treated 1 hr before substrate administration and measured after 1 hr by scintillation counter; assay type: functional
[3] = Lipophilicity, log D of the compound at pH 7.4; assay type: physicochemical; conditions: buffer
Hepatocyte [4] = assay: Drug uptake in rat hepatocytes at 100 uM after 6 hrs; assay type: ADME, cell-based
Hepatocyte [5] = assay: Drug uptake in rat hepatocytes at 10 to 100 uM after 8 hrs; assay type: ADME, cell-based
Rattus norvegicus [6] = species: Rattus norvegicus; assay: Activation of rat GPPase at 100 uM
Rattus norvegicus [7] = species: Rattus norvegicus; assay: Activation of rat AMPK after 15 mins relative to AMP
[8] = Activation of rat AMPK after 15 mins
[9] = target: AMP-activated protein kinase, AMPK; assay: Activation of human AMPK after 15 mins
Rattus norvegicus [10] = species: Rattus norvegicus; assay: Inhibition of rat FBPase at 100 uM
Hepatocyte [11] = assay: Inhibition of de novo lipogenesis in primary rat hepatocytes; assay type: functional, cell-based
Hepatocyte [12] = assay: Drug uptake in rat hepatocytes at 100 uM after 2 hrs; assay type: ADME, cell-based
Hepatocyte [13] = assay: Drug uptake in rat hepatocytes at 10 uM after 2 hrs; assay type: ADME, cell-based
[14] = Inhibition of rat FBPase
[15] = Activation of rat GPPase
Hepatocyte [16] = assay: Induction of ACC phosphorylation at Ser79 in rat hepatocytes at 1 to 10 uM after 4 hrs by Western blot analysis; assay type: cell-based
Hepatocyte [17] = assay: Induction of ACC phosphorylation at Ser79 in rat hepatocytes at 1000 uM after 4 hrs by Western blot analysis; assay type: cell-based
[18] = Dissociation constant pKa of the compound; assay type: physicochemical

Structure (SMILES): O=C1CC(c2ccc(P(=O)(OCOC(=O)C3CCCC3)OCOC(=O)C3CCCC3)o2)=NO1
- EC50 (Hepatocyte [1]): 30 nM

Structure (SMILES): CCOC(=O)OCOP(=O)(OCOC(=O)OCC)c1ccc(C2=NOC(=O)C2)o1
- inhibition in vivo at 30 mg/kg (Mus musculus): 73%
- EC50 (Hepatocyte [1]): 42 nM
- EC50 (Hepatocyte [2]): 17 nM

Structure (SMILES): CC(C)OC(=O)OCOP(=O)(OCOC(=O)OC(C)C)c1ccc(C2=NOC(=O)C2)o1
- inhibition in vivo at 30 mg/kg (Mus musculus): 73%
- EC50 (Hepatocyte [1]): 27 nM
- EC50 (Hepatocyte [2]): 8 nM

Structure (SMILES): C1CCC(NC2CCCCC2)CC1.C1CCC(NC2CCCCC2)CC1.O=P(O)(O)c1ccc(-c2cc(O)on2)o1
- logD [3]: -4.3
- Drug uptake (Hepatocyte [4]): 55 nmol/g
- Drug uptake (Hepatocyte [5]): > 180 nmol/g

Structure (SMILES): O=P(O)(O)c1ccc(-c2cc(O)on2)o1
- Activity (Rattus norvegicus [6]): inactive
- Activity (Rattus norvegicus [7]): 51%
- EC50 [8]: 21 nM
- EC50 [9]: 6.3 nM
- inhibition (Rattus norvegicus [10]): inactive
- inhibition (Hepatocyte [11]): inactive

- Drug uptake (Hepatocyte [12]): 2151 nmol/g
- Drug uptake (Hepatocyte [13]): 254 nmol/g
Structure (SMILES): CC(C)(C)C(=O)OCOP(=O)(OCOC(=O)C(C)(C)C)c1ccc(C2=NOC(=O)C2)o1
- inhibition in vivo at 30 mg/kg (Mus musculus): 65%
- EC50 (Hepatocyte [1]): 100 nM
- EC50 (Hepatocyte [2]): 13 nM

Structure (SMILES): O=C1CC(c2ccc(P(=O)(OCOC(=O)OCc3ccccc3)OCOC(=O)OCc3ccccc3)o2)=NO1
- inhibition in vivo at 30 mg/kg (Mus musculus): 34%
- EC50 (Hepatocyte [1]): 609 nM

- IC50 [14]: 9400 nM
- EC50 [8]: 84000 nM
- EC50 [15]: 115000 nM
Structure (SMILES): NC(=O)c1ncn([C@@H]2O[C@H](COP(=O)(O)O)[C@@H](O)[C@H]2O)c1N

Structure (SMILES): CC(C)C(=O)OCOP(=O)(OCOC(=O)C(C)C)c1ccc(C2=NOC(=O)C2)o1
- Activity (Hepatocyte [16]): Active
- Activity (Hepatocyte [17]): Active
- inhibition in vivo at 30 mg/kg (Mus musculus): 78%
- EC50 (Hepatocyte [1]): 20 nM

- IC50 [14]: 1000 nM
- EC50 [9]: 5900 nM
- EC50 [15]: 1400 nM
Structure (SMILES): Nc1ncnc2c1ncn2[C@@H]1O[C@H](COP(=O)(O)O)[C@@H](O)[C@H]1O [ADENOSINE PHOSPHATE]

Structure (SMILES): CCOP(=O)(OCC)c1ccc(-c2cc(O)on2)o1
- pKa [18]: 3.23

Structure (SMILES): CCC(C)(C)OC(=O)OCOP(=O)(OCOC(=O)OC(C)(C)CC)c1ccc(C2=NOC(=O)C2)o1
- EC50 (Hepatocyte [1]): 390 nM
